Test results: patent US11584756B2, “Heterocyclic compounds as BET inhibitors” (NUVATION BIO INC., priority 2019, dated 2023)
Read-outs that look alike come from different tables or passages of the source.

How the values were obtained:
BRD4-1 = BRD4-1 (Homo sapiens (Human), UniProt O60885); test: Bromodomain and Extraterminal Domain (BET) binding assay, BRD4-1; conditions: histone H4 peptide (1-21) K5/8/12/16Ac-biotin ligand; 20 nM protein, 20 nM ligand
Procedure: (§1) The bromodomain binding assays were performed by Reaction Biology Corp., Malvern, Pa., USA (www.reactionbiology.com). The BET binding assays were conducted in 384 well microplates in assay buffer (50 mM HEPES-HCl, pH 7.5, 100 mM NaCl, 1 mg/ml BSA, 0.05% CHAPS, and 0.5% DMSO) with compounds added as DMSO stocks at a single concentration or with 10-point dose response titrations. BET protein or assay buffer were delivered to the appropriate wells of the microplate. Test compound was then delivered by acoustic technology via a Labcyte Echo550 liquid handler. The microplate was centrifuged for 5 min and pre-incubated for 30 min at RT with gentle shaking. The ligand (histone H4 peptide (1-21) K5/8/12/16Ac-biotin) was delivered and the microplate was again centrifuged for 5 min and allowed to incubate for 30 min at RT with gentle shaking. Donor beads were then added in the absence of light and the microplate was centrifuged and gently shaken. After 5 min, acceptor beads were added in the absence of light and the microplate was centrifuged and gently shaken in the dark for 60 min. The microplate was read using a Perkin Elmer EnSpire Alpha plate reader (λ Ex/λ Em=680/520-620 nm). Percent inhibition was calculated relative to positive and negative controls on a per plate basis. For titration experiments, IC50 values were determined by fitting the percent inhibition versus compound concentration.

[1] = system: MV-4-11 human acute myeloid leukemia cell line; test: Cell viability assay in MV-4-11 cells (Cell Titer-Glo); assay type: cell-based; conditions: MV4-11, 72 hrs incubation
Procedure: The effects of test compounds were studied in a cell viability assay in the MV-4-11 human acute myeloid leukemia cell line. The cells were harvested during the logarithmic growth period and counted. Cells were seeded at a count of 15000 cells per well/100 μl. After seeding, cells were incubated at 37° C. 5% CO2 for 1 hr. Cells were treated with test compounds at 8 concentrations within a desired concentration range (e.g. 5 nM-10 μM) for generation of dose response curves by preparing serial dilutions of the test compound in DMSO which were further diluted with culture medium and then added to each well. The plate was further incubated for another 72 hrs in a humidified incubator at 37° C. and 5% CO2. The assay was terminated by addition of Cell Titer-Glo reagent (Promega, Madison, Wis.) at ¼ the volume of total medium per well. Contents were mixed, the plate was incubated for 10 min at room temperature and luminescence was measured. Cell viability data were plotted using GraphPad Prism (GraphPad Software, Inc., San Diego, Calif.). In addition, a nonlinear regression model with a sigmoidal dose response and variable slope within GraphPad Prism was used to calculate the IC50 value of individual test compounds.

[2] = system: IEC-6 rat intestinal epithelial cell line; test: Cell viability assay in IEC-6 cells (resazurin), potential toxicity to non-cancerous cells; assay type: cell-based
Procedure: The effects of test compounds were also studied in the IEC-6 rat intestinal epithelial cell line to assess potential toxicity to non-cancerous cells. The cells were harvested during the logarithmic growth period and counted. In Protocol A, cells were seeded at a count of 3000 cells per well/100 μl in a 96-well plate. After seeding, cells were incubated at 37° C. 5% CO2 for 24 hr. Cells were treated with test compounds at 8 concentrations within a desired concentration range (e.g. 5 nM-10 μM) for generation of dose response curves by preparing serial dilutions of the test compound in DMSO which were further diluted with culture medium and then added to each well. The plate was further incubated for another 96 hrs in humidified incubator at 37° C. and 5% CO2. The assay was terminated by addition of resazurin (#R7017, Sigma). The plate was incubated for 4 hr at 37° C. 5% CO2 and fluorescence was measured using excitation and emission wavelengths of 535 and 590 nm, respectively. Cell viability data were plotted using GraphPad Prism (GraphPad Software, Inc., San Diego, Calif.). In addition, a nonlinear regression model with a sigmoidal dose response and variable slope within GraphPad Prism was used to calculate the IC50 value of individual test compounds. Protocol B was the same as Protocol A except that cells were seeded at a count of 4000 cells per well/100 μl in a 96-well plate, and the incubation with test compound was for 48 hrs instead of 96 hrs.

BRD4-2 = BRD4-2 (Homo sapiens (Human), UniProt O60885); test: Bromodomain and Extraterminal Domain (BET) binding assay, BRD4-2; conditions: histone H4 peptide (1-21) K5/8/12/16Ac-biotin ligand; 130 nM protein, 70 nM ligand
Procedure: as §1

[3] = Protocol A: 3000 cells per well, 96 hrs incubation with test compound, read-out: Protocol A IC50 (μM), cell viability in IEC-6 cells
[4] = Protocol B: 4000 cells per well, 48 hrs incubation with test compound, read-out: Protocol B IC50 (μM), cell viability in IEC-6 cells

Row | IC50 (BRD4-1) [nM] | IC50 [1] [µM] | IC50 (BRD4-2) [nM] | SMILES | IC50 [2, 3] [µM] | IC50 [2, 4] [µM]
1 | 94 | 0.379 | 74 | Cc1noc(-c2cc3c(-c4cc(C(C)(C)O)ccc4Oc4ccc(F)cc4F)cn(C)c(=O)c3s2)n1 [Compound 8, 4-(2-(2,4-difluorophenoxy)-5-(2-hydroxypropan-2-yl)phenyl)-6-methyl-2-(3-methyl-1,2,4-oxadiazol-5-yl)thieno[2,3-c]pyridin-7(6H)-one] | 0.156 | 0.521
2 | 4940 | 0.54 | 9 | Cc1nnc(-c2cc3c(-c4cc(C(C)(C)O)ccc4Oc4c(C)cc(F)cc4C)cn(C)c(=O)c3s2)o1 [Compound 13, 4-(2-(4-fluoro-2,6-dimethylphenoxy)-5-(2-hydroxypropan-2-yl)phenyl)-6-methyl-2-(5-methyl-1,3,4-oxadiazol-2-yl)thieno[2,3-c]pyridin-7(6H)-one] |  | 2.5
3 | 111 | 0.126 | 3.4 | CCS(=O)(=O)Nc1ccc(Oc2c(C)cc(F)cc2C)c(-c2cn(C)c(=O)c3sc(-c4nnc(C)o4)cc23)c1 [Compound 10, N-(4-(4-fluoro-2,6-dimethylphenoxy)-3-(6-methyl-2-(5-methyl-1,3,4-oxadiazol-2-yl)-7-oxo-6,7-dihydrothieno[2,3-c]pyridin-4-yl)phenyl)ethanesulfonamide] |  | 0.78
4 | 103 | 0.56 | 196 | CCS(=O)(=O)Nc1ccc(Oc2ccc(F)cc2F)c(-c2cn(C)c(=O)c3sc(-c4nc5ccccc5o4)cc23)c1 [Compound 158, N-(3-(2-(benzo[d]oxazol-2-yl)-6-methyl-7-oxo-6,7-dihydrothieno[2,3-c]pyridin-4-yl)-4-(2,4-difluorophenoxy)phenyl)ethanesulfonamide] |  | 
5 | 265 | 0.879 | 17 | Cn1cc(-c2cc(C(C)(C)O)ccc2Oc2ccc(F)cc2F)c2cc(C(=O)N3CCC(F)(F)C3)sc2c1=O [Compound 76, 4-(2-(2,4-difluorophenoxy)-5-(2-hydroxypropan-2-yl)phenyl)-2-(3,3-difluoropyrrolidin-1-carbonyl)-6-methylthieno[2,3-c]pyridin-7(6H)-one] |  | 
6 | 1120 | 0.768 | 18 | Cn1cc(-c2cc(C(C)(C)O)ccc2Oc2ccc(F)cc2F)c2cc(C(=O)N3CCCC(F)(F)C3)sc2c1=O [Compound 23, 4-(2-(2,4-difluorophenoxy)-5-(2-hydroxypropan-2-yl)phenyl)-2-(3,3-difluoropiperidine-1-carbonyl)-6-methylthieno[2,3-c]pyridin-7(6H)-one] |  | 1.62
7 | > 10000 | 1.5 | 103 | Cc1cc(F)cc(C)c1Oc1ccc(C(C)(C)O)cc1-c1cn(C)c(=O)c2sc(C(=O)NCc3ccccc3)cc12 [Compound 149, N-benzyl-4-(2-(4-fluoro-2,6-dimethylphenoxy)-5-(2-hydroxypropan-2-yl)phenyl)-6-methyl-7-oxo-6,7-dihydrothieno[2,3-c]pyridine-2-carboxamide] |  | 
8 | 3600 | 0.193 | 1.2 | CNC(=O)c1cc2c(-c3cc(C(C)(C)O)ccc3Oc3c(C)cc(F)cc3C)cn(C)c(=O)c2s1 [Compound 150, 4-(2-(4-fluoro-2,6-dimethylphenoxy)-5-(2-hydroxypropan-2-yl)phenyl)-N,6-dimethyl-7-oxo-6,7-dihydrothieno[2,3-c]pyridine-2-carboxamide] |  | 
9 | 118 | 0.163 | 28.5 | Cn1cc(-c2cc(C(C)(C)O)ccc2Oc2ccc(F)cc2F)c2sccc2c1=O [Compound 2.3, 7-(2-(2,4-difluorophenoxy)-5-(2-hydroxypropan-2-yl)phenyl)-5-methylthieno[3,2-c]pyridin-4(5H)-one] |  | 
10 | > 10000 | 1.28 | 103 | C=C(C)c1ccc(Oc2c(C)cc(F)cc2C)c(-c2cn(C)c(=O)c3sc(C(=O)NCC)cc23)c1 [Compound 148, N-ethyl-4-(2-(4-fluoro-2,6-dimethylphenoxy)-5-(prop-1-en-2-yl)phenyl)-6-methyl-7-oxo-6,7-dihydrothieno[2,3-c]pyridine-2-carboxamide] |  | 
11 | > 10000 | 2.89 | 284 | Cc1cc(F)cc(C)c1Oc1ccc(C(C)(C)O)cc1-c1cn(C)c(=O)c2sc(-c3nc4ccccc4[nH]3)cc12 [Compound 154, 2-(1H-benzo[d]imidazol-2-yl)-4-(2-(4-fluoro-2,6-dimethylphenoxy)-5-(2-hydroxypropan-2-yl)phenyl)-6-methylthieno[2,3-c]pyridin-7(6H)-one] |  | 
12 | 1480 | 1.79 | 32 | Cn1cc(-c2cc(C(C)(C)O)ccc2Oc2ccc(F)cc2F)c2cc(C(=O)N3CCCCC3)sc2c1=O [Compound 6, 4-(2-(2,4-difluorophenoxy)-5-(2-hydroxypropan-2-yl)phenyl)-6-methyl-2-(piperidine-1-carbonyl)thieno[2,3-c]pyridin-7(6H)-one] |  | 
13 |  | 0.111 | 1 | CCNC(=O)c1cc2c(-c3cc(C(C)(C)O)ccc3Oc3ccc(Cl)cc3Cl)cn(C)c(=O)c2s1 [Compound 2, 4-(2-(2,4-dichlorophenoxy)-5-(2-hydroxypropan-2-yl)phenyl)-N-ethyl-6-methyl-7-oxo-6,7-dihydrothieno[2,3-c]pyridine-2-carboxamide] | 0.061 | 
14 | 2500 | 0.47 | 19.8 | Cc1cc(F)cc(C)c1Oc1ccc(C(C)(C)O)cc1-c1cn(C)c(=O)c2ccsc12 [Compound 2.1, 7-(2-(4-fluoro-2,6-dimethylphenoxy)-5-(2-hydroxypropan-2-yl)phenyl)-5-methylthieno[3,2-c]pyridin-4(5H)-one] |  | 
15 | 1170 | 0.768 | 47 | Cn1cc(-c2cc(C(C)(C)O)ccc2Oc2ccc(F)cc2F)c2cc(C(=O)NC3(C(F)(F)F)CC3)sc2c1=O [Compound 14, 4-(2-(2,4-difluorophenoxy)-5-(2-hydroxypropan-2-yl)phenyl)-6-methyl-7-oxo-N-(1-(trifluoromethyl)cyclopropyl)-6,7-dihydrothieno[2,3-c]pyridine-2-carboxamide] |  | 
16 | > 10000 | 3.83 | 526 | Cc1cc(F)cc(C)c1Oc1ccc(C(C)(C)O)cc1-c1cn(C)c(=O)c2sc(-c3nc4ccccc4o3)cc12 [Compound 153, 2-(benzo[d]oxazol-2-yl)-4-(2-(4-fluoro-2,6-dimethylphenoxy)-5-(2-hydroxypropan-2-yl)phenyl)-6-methylthieno[2,3-c]pyridin-7(6H)-one] |  | 
17 | 744 | 0.597 | 18 | Cn1cc(-c2cc(C(C)(C)O)ccc2Oc2ccc(F)cc2F)c2cc(C(=O)NCC(F)(F)F)sc2c1=O [Compound 5, 4-(2-(2,4-difluorophenoxy)-5-(2-hydroxypropan-2-yl)phenyl)-6-methyl-7-oxo-N-(2,2,2-trifluoroethyl)-6,7-dihydrothieno[2,3-c]pyridine-2-carboxamide] |  | 
